The first experiment deals with T. gondii adenosine kinase (Toxoplasma gondii, UniProt Q9TVW2). As to the kind of experiment: biochemical.
Chain of T. gondii adenosine kinase (Q9TVW2 whole entry): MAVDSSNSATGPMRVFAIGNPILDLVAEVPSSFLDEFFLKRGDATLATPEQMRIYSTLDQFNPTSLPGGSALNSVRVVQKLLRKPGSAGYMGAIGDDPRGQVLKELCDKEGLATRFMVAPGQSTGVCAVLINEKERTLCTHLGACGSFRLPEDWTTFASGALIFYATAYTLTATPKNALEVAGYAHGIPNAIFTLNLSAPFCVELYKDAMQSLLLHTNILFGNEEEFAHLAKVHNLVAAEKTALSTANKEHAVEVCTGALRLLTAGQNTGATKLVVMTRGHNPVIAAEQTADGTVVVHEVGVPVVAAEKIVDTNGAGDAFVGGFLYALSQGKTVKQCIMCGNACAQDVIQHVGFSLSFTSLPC
Settings: not given
The protocol:
Preparation of cytosol extracts. For the structure activity relationships studies, approximately 5×10^8 T. gondii were suspended in 1.2 ml of 50 mM N-2-hydroxyethylpiperazine-N'-2-ethanesulfonic acid (HEPES)-Cl (pH 8.0)/1 mM dithiothreitol and homogenized for 30 seconds at setting 10, using a Brinnmann Instruments Polytron homogenizer fitted with a PTA 7K1 probe. The homogenate was then centrifuged at approximately 116,000 g for 1 hour at 5° and the supernatant (cytosol extract) collected and used as the enzyme source. Fresh cytosol extracts were prepared for each experiment.
Adenosine kinase assay. T. gondii adenosine kinase activity was measured by following the formation of [^14 C]AMP from [^14 C]adenosine and ATP. […] Therefore, the standard reaction mixture contained 50 mM HEPES-Cl (pH 8.0), 1 mM dithiothreitol, 5 μM [8-^14 C]adenosine (45 Ci/mol), 0.5 mM ATP, 0.5 mM MgCl2, 25 μM (+)-EHNA or 100 μM (±)-EHNA,10-30 μl of cytosol extract (approximately 3-10 μg of protein), and either 0, 0.1, 0.25, 0.5 or 1.0 mM of the compound to be tested, in a final volume of 150 μl.
Reactions were started by the addition of [8-^14 C]adenosine, incubated at 37° for 10 minutes and terminated by placing the reaction tubes in a boiling water bath for 2 minutes. Precipitated proteins were removed by centrifugation in a microcentrifuge (approximately 13,000 g) for 5 minutes, and a 15 μl aliquot of the resulting supernatant was mixed with 5 μl of a solution containing 10 mM each of AMP and adenosine. This mixture was then spotted on silica gel thin layer chromatography plates which were developed with a mixture of chloroform/methanol/acetic acid (16:3:1). […] The substrate and product spots (which accounted for all of the radioactivity on the plates) were identified by UV quenching, cut out, and the radioactivity quantitated by liquid scintillation counting in 20 ml of Scintilene, using a Packard 460 scintillation counter. […] Enzyme velocity was calculated by multiplying the fraction of AMP formed from adenosine times the amount of adenosine in the assay, and dividing by the incubation time.
Determination and significance of AppKi values. AppKi values were used to determine the relative degree of binding of compounds to adenosine kinase as compared to adenosine. AppKi values were estimated from Dixon plots of the data (1/.nu. versus [I]), using a computer program with least squares fitting according to the general principles of Cleland (Cleland, W W, The statistical analysis of enzyme kinetic data. Adv. Enzymol. 29:1-32, 1967). The program was written by Dr. Sungman Cha (Brown University, Providence, R.I.) and modified to fit IBM BASIC by Dr. Fardos N. M. Naguib. […] It should be noted, however, that the type of inhibition (i.e., competitive, noncompetitive, or uncompetitive) produced by the compounds was not determined, nor were the compounds evaluated as substrates for T. gondii adenosine kinase.
Regarding `Cn1cnc2c(ncn2[C@H]2C[C@H](O)[C@@H](CO)O2)c1=N` [Compound 116, 1-Methyl-2'-deoxyadenosine], the Ki is 8000 µM.
The compound `CCCCCCCCCCNc1ncnc2c1ncn2[C@@H]1O[C@H](CO)[C@@H](O)[C@H]1O` [Compound 42] registered a Ki of 380 ± 130 µM.
On the same count and under the same terms, the figure for `Nc1ncnc2c1ncn2[C@@H]1O[C@H](CO)[C@@H](O)[C@@H]1O` [Compound 86, Adenine arabinoside (ara-A)] is 3000 µM; for `OC[C@H]1O[C@@H](n2cnc3c(NC4CCCCC4)ncnc32)[C@H](O)[C@@H]1O` [Compound 40] it is 240 ± 70 µM.
For `OC[C@H]1O[C@@H](n2cc(Br)c3c(NO)ncnc32)[C@H](O)[C@@H]1O` [Compound 70, N^6 -Hydroxy-7-bromo-7-deazaadenosine], the Ki stood at 37 ± 9 µM.
On the same count and under the same terms, the figure for `O=C(Nc1ncnc2c1ncn2[C@@H]1O[C@H](CO)[C@@H](O)[C@H]1O)c1ccccc1` [Compound 44] is 23 ± 1 µM; for `COc1ccc(C(=O)Nc2ncnc3c2ncn3[C@@H]2O[C@H](CO)[C@@H](O)[C@H]2O)cc1` [Compound 47] it is 3.9 ± 0.9 µM.
Consider `Nc1c2ncn([C@@H]3O[C@H](CO)[C@@H](O)[C@H]3O)c2nc[n+]1[O-]` [Compound 4], for which the affinity corresponds to a Ki of 1230 µM.
On the same count and under the same terms, the figure for `O=c1[nH]cnc2c1cnn2[C@@H]1O[C@H](CO)[C@@H](O)[C@H]1O` [Compound 77, 8-Aza-6-hydroxy-7-deazapurine riboside (allopurinol)] is 15000 µM.
Same read-out and setting: the figure for `C[C@H](Cc1ccccc1)Nc1ncnc2c1ncn2[C@@H]1O[C@H](CO)[C@@H](O)[C@H]1O` [Compound 49] is 750 ± 30 µM.
In the case of `Nc1ncnc2c1ncn2[C@@H]1O[C@H](CO)[C@@H](O)[C@H]1O` [Compound 1], the Ki is 7 ± 3.3 µM.
The same measure, in the same setting: as for `NC(=NO)c1cn([C@@H]2O[C@H](CO)[C@@H](O)[C@H]2O)c2ncnc(N)c12` [Compound 56], the figure is 200 ± 6 µM.
The same measure, in the same setting: the figure for `CC(C)CC[C@H]1O[C@@H](n2cnc3c(N)ncnc32)[C@H](O)[C@@H]1O` [Compound 101, 5'-Isobutyl-5'-deoxyadenosine] is 410 ± 90 µM; for `Nc1ncnc2c1ncn2[C@@H]1O[C@H](CO)[C@H](O)[C@H]1O` [Compound 92, Adenine xyloside] it is 1400 µM.
The same measure, in the same setting: the figure for `OC[C@H]1O[C@@H](n2cnc3c(NCc4ccccc4)ncnc32)[C@H](O)[C@@H]1O` [Compound 45] is 100 ± 30 µM; for `COc1ncnc2c1ncn2[C@@H]1O[C@H](CO)[C@@H](O)[C@H]1O` [Compound 16] it is 370 ± 40 µM; for `Nc1ncnc2c1ncn2[C@@H]1O[C@H](COC(=O)CCC(=O)O)[C@@H](O)[C@H]1O` [Compound 100, 5'-Succinyladenosine (adenosine 5'-succinate)] it is 920 ± 600 µM.
Take `Nc1nc(NC2C=C(CO)C(O)C2O)c([N+](=O)[O-])c(=O)[nH]1` (centres unmarked) [Compound 127, 2-Amino-4-(3-hydroxymethyl-4,5-dihydroxy-2-cyclopenten-1-yl)aminto-1,6-dihydro-5-nitro-6-oxopyrimidine]: the Ki came out at 940 ± 110 µM.
Still for that read-out and setting: the figure for `Nc1ncnc2c1cnn2[C@@H]1O[C@H](CO)[C@@H](O)[C@H]1O` [Compound 72, 8-Aza-7-deazaadenosine] is 1700 µM; for `CCCCCCNc1ncnc2c1ncn2[C@@H]1O[C@H](CO)[C@@H](O)[C@H]1O` [Compound 39] it is 76 ± 4 µM.
In the case of `CCSc1ncnc2c1ncn2[C@@H]1O[C@H](CO)[C@@H](O)[C@H]1O` [Compound 19], affinity was put at a Ki of 330 ± 3 µM.
`OC[C@H]1O[C@@H](n2cnc3c2N=CNC[C@H]3O)[C@H](O)[C@@H]1O` [Compound 85, Coformycin] had a Ki of 2000 µM.
Turning to `Nc1ncnc2c1ncn2[C@@H]1O[C@H](CO)C[C@H]1O` [Compound 90, 3'-Deoxyadenosine (Cordycepin)], the Ki was 1100 µM.
Still for that read-out and setting: as for `NNc1c(C(N)=O)c2c(N)ncnc2n1[C@@H]1O[C@H](CO)[C@@H](O)[C@H]1O` [Compound 74, 8-Hydrazino-7-carboxamido-7-deazaadenosine (6-Hydrazinosangivamycin)], the figure is 160 ± 9 µM.
Turning to `Nc1ncnc2c1ncn2[C@@H]1O[C@H](CCl)[C@@H](O)[C@H]1O` [Compound 95, 5'-Chloro-5'-deoxyadenosine], the Ki is 210 ± 10 µM.
The same measure, in the same setting: the figure for `OC[C@H]1O[C@@H](n2ccc3c(Cl)ncnc32)[C@H](O)[C@@H]1O` [Compound 68] is 72 ± 12 µM.
The same measure, in the same setting: the figure for `COc1ccc(C[C@H](N)C(=O)N[C@H]2[C@@H](O)[C@H](n3cnc4c(N(C)C)ncnc43)O[C@@H]2CO)cc1` [Compound 124, 3'(α-Amino-p-methoxyhydrocinnamamido)-3'-deoxy-N^6-dimethyladenosine (Puromycin)] is 1300 µM; for `COc1ccc(C2OC3C(CO)OC(n4cnc5c(N)ncnc54)C3O2)cc1` (centres unmarked) [Compound 108, 2',3'-O-p-Anisylidene adenosine] it is 1400 µM; for `C[C@H]1O[C@@H](n2cnc3c(N)ncnc32)[C@H](O)[C@@H]1O` [Compound 93, 5'-Deoxyadenosine] it is 40 ± 3 µM.
The same measure, in the same setting: as for `O=C(Nc1ncnc2c1ncn2[C@H]1C[C@H](O)[C@@H](CO)O1)c1ccccc1` [Compound 118, N^6 -Benzoyl-2'-deoxyadenosine], the figure is 590 ± 20 µM; as for `Nc1nc(Cl)c2ncn([C@@H]3O[C@H](CO)[C@@H](O)[C@H]3O)c2n1` [Compound 63], 1800 µM.

The experiment is the same for the next values; noted with them: AppKi for inhibition of T. gondii adenosine kinase, 5 μM adenosine; ± range, at least two estimations.
For `O=[N+]([O-])c1ccc(C[Se]c2ncnc3c2ncn3[C@@H]2O[C@H](CO)[C@@H](O)[C@H]2O)cc1` [Compound 24], the inhibition constant (Ki) was 84 ± 46 µM.
Same read-out and setting: as for `OC[C@H]1O[C@@H](n2cnc3c(=[Se])[nH]cnc32)[C@H](O)[C@@H]1O` [Compound 23], the figure is 130 ± 20 µM.
On the same count and under the same terms, as for `OC[C@H]1O[C@@H](n2cnc3c(NC4CCCC4)nc(Cl)nc32)[C@H](O)[C@@H]1O` [Compound 66], the figure is 390 ± 90 µM; as for `Nc1ncnc2c1ccn2[C@@H]1O[C@H](CO)[C@@H](O)[C@H]1O` [Compound 51], 340 ± 80 µM; as for `N#Cc1cn([C@@H]2O[C@H](CO)[C@@H](O)[C@H]2O)c2ncnc(N)c12` [Compound 54], 21 ± 2 µM.
`Nc1ncnc2c1ncn2[C@@H]1O[C@H](COC(=O)c2ccc(S(=O)(=O)F)cc2)[C@@H](O)[C@H]1O` [Compound 105, 5'-(p-Fluorosulfonylbenzoyl)adenosine]: the Ki is 340 ± 40 µM.
On to `Nc1ncnc2c1c(Cl)cn2[C@@H]1O[C@H](CO)[C@@H](O)[C@H]1O` [Compound 52], for which the Ki is 10 ± 1 µM.

Staying with this experiment, now noted: read-out: Inhibition of T. gondii adenosine kinase.
For `CO[C@H]1[C@@H](O)[C@H](n2cnc3c(N)ncnc32)O[C@@H]1CO` [Compound 91, 3'-O-Methyladenosine], the inhibition at 1000 µM was below 10%.
Still for that read-out and setting: the figure for `Nc1nc2c(ncn2[C@@H]2O[C@H](CO)[C@@H](O)[C@H]2F)c(=O)[nH]1` [Compound 121, 2'-Fluoro-2'-deoxyguanosine] is below 10%.
On the same count and under the same terms, the figure for `Nc1ncnc2c1ncn2[C@H]1O[C@@H](CO)[C@H](O)[C@@H]1O` [Compound 2] is below 10%; for `Nc1ncnc(NC2C=C(CO)C(O)C2O)c1[N+](=O)[O-]` (centres unmarked) [Compound 125, 4-(3-Hydroxymethyl-4,5-dihydroxy-2-cyclopenten-1-yl)amino-5-nitro-6-aminopyrimidine] it is below 10%; for `O=c1[nH]cnc2c1ncn2[C@@H]1O[C@H](CO)[C@@H](O)[C@H]1O` [Compound 15] it is below 10%.
On the same count and under the same terms, the figure for `CC(=O)O[C@@H]1[C@H](OC(C)=O)[C@@H](CO)O[C@H]1n1cnc2c(N)ncnc21` [Compound 109, 2',3'-Di-O-acetyladenosine] is below 10%; for `Cc1ccc(S(=O)(=O)O[C@@H]2[C@H](O)[C@@H](CO)O[C@H]2n2cnc3c(N)ncnc32)cc1` [Compound 89, 2'Tosyladenosine] it is below 10%; for `OC[C@H]1O[C@@H](n2cnc3cccnc32)[C@H](O)[C@@H]1O` [Compound 61] it is below 10%.

The same experiment, now with this note: relative to adenosine.
On to `CO[C@H]1[C@@H](O)[C@H](n2cnc3c(N)ncnc32)O[C@@H]1CO` [Compound 91, 3'-O-Methyladenosine], for which the “Effect on binding to T. gondii adenosine kinase, in words” value was “abolishes”.

Still in this experiment, the particulars now being: relative to reference compound adenosine.
For `Nc1ncnc2c1ncn2[C@@H]1O[C@H](CO)[C@@H](O)[C@@H]1O` [Compound 86, Adenine arabinoside (ara-A)], the “Decrease in binding to T. gondii adenosine kinase” value came to 430 fold.
As for `Nc1ncnc2c1ncn2[C@@H]1O[C@H](CO)[C@H](O)[C@H]1O` [Compound 92, Adenine xyloside], the “Decrease in binding to T. gondii adenosine kinase” value is given as 200 fold.
Still for that read-out and setting: the figure for `C[C@H]1O[C@@H](n2cnc3c(N)ncnc32)[C@H](O)[C@@H]1O` [Compound 93, 5'-Deoxyadenosine] is 5.7 fold.

Values taken from US5773424A, “Treatment of toxoplasmosis” (priority 1994, dated 1998).
